In patent publication US9249125B2, “Pyrazole derivatives as p38 MAP inhibitors” (RESPIVERT LIMITED, priority 2012, dated 2016):
pEC50, pIC50: −log10 of the molar value.

Columns and labels:
[1] = system: LPS-induced IL-8 release in d-U937 cells; experiment: LPS-induced IL-8 release in d-U937 cells; type: cell-based; settings: Homo sapiens, dU937, read-out: LPS Induced Release of Cytokine in d-937 Cells IL-8 IC50
Summary of the method: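 PMA (100 ng/mL, 48–72 hr)-differentiated U937; cpd 2 hr pre-inc; LPS 0.1 μg/mL (E. coli O111:B4) 4 hr. Supernatant TNFα/IL-8 by sandwich ELISA. IL-8 inhibition per concentration vs vehicle; REC50 from curve fit.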

[2] = system: LPS-induced TNFα release in d-U937 cells; experiment: LPS-induced TNFα release in d-U937 cells; type: cell-based; settings: Homo sapiens, dU937, relative to 10 μg/mL BIRB796, read-out: LPS Induced Release of Cytokine in d-937 Cells TNFα REC50
Summary of the method: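 PMA-differentiated (100 ng/mL, 48–72 hr) U937 cells pre-incubated with compound 2 hr, then stimulated with LPS (0.1 μg/mL, E. coli O111:B4) for 4 hr. Supernatant TNFα and IL-8 measured by sandwich ELISA; inhibition versus vehicle control, REC50 from concentration-response curve.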

[3] = target: Syk (Homo sapiens (Human), UniProt P43405); experiment: Syk enzyme inhibition (FRET, Z-LYTE); type: biochemical
Summary of the method: (§1)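 Z-LYTE FRET kinase assay: enzyme (3000 or 2000 ng/mL stock, respectively) preincubated 2 h at RT with compound (4–0.004 μg/mL stocks), then FRET peptide plus ATP (800 μM stock for c-Src, 60 μM for Syk) added for 1 h. Protease development 1 h; phosphorylation from coumarin/fluorescein emission ratio.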

[4] = target: cSrc (Homo sapiens (Human), UniProt P12931); experiment: c-Src enzyme inhibition (FRET, Z-LYTE); type: biochemical
Sequence of cSrc (P12931 whole entry, looked up): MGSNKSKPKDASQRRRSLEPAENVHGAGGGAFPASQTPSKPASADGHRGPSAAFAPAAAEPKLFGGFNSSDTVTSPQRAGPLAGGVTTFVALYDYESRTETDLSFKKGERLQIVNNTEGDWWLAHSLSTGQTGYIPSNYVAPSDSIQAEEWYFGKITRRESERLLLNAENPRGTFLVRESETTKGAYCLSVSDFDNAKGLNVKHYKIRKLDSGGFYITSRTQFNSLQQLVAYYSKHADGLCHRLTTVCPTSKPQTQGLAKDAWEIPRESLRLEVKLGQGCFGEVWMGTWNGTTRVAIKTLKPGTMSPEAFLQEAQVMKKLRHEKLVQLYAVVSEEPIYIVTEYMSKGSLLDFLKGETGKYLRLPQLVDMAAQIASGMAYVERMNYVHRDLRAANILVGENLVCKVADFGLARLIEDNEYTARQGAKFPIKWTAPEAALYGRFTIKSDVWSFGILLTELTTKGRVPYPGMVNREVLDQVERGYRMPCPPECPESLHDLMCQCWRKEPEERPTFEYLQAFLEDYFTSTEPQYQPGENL
Summary of the method: as §1

[5] = target: p38 MAPKα (Homo sapiens (Human), UniProt Q16539); experiment: p38 MAPKα enzyme inhibition (FRET, Z-LYTE); type: biochemical
Sequence of p38 MAPKα (Q16539 whole entry): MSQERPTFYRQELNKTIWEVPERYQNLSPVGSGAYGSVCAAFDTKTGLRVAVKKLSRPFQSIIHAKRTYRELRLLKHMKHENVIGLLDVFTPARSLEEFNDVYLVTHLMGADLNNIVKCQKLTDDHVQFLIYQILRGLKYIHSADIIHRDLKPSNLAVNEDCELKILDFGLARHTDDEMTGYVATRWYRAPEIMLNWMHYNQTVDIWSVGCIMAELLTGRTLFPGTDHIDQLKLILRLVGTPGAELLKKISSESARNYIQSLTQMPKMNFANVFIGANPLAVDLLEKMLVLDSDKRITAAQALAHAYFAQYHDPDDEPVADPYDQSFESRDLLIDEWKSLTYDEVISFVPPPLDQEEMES

[6] = target: GSK3α (Homo sapiens (Human), UniProt P49840); experiment: GSK 3α enzyme inhibition (FRET, Z-LYTE); type: biochemical
Sequence of GSK3α (P49840 whole entry): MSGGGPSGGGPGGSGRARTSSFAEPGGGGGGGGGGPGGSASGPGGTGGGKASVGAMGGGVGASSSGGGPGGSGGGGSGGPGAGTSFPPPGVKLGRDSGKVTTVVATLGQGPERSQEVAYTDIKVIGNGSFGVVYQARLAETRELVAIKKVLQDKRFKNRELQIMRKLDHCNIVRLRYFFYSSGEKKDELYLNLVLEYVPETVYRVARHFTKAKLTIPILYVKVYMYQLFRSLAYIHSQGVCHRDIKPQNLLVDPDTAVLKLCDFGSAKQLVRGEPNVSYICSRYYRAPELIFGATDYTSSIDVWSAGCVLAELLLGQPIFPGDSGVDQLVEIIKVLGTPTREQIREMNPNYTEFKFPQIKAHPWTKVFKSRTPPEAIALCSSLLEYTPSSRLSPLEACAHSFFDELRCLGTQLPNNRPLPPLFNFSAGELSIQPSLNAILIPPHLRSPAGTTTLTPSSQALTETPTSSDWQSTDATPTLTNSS
Summary of the method: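 GSK3α (500 ng/mL stock) was preincubated 2 hr at RT with compound (4 to 0.004 μg/mL stocks), then FRET peptide (8 μM stock) and ATP (40 μM stock) added for 1 hr. Protease development for 1 hr cleaved unphosphorylated peptide; coumarin/fluorescein emission ratio reported phosphorylation.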

[7] = system: Poly I:C-induced ICAM-1 expression in BEAS2B cells; experiment: Poly I:C-induced ICAM-1 expression in BEAS2B cells; type: cell-based; settings: Homo sapiens, BEAS-2B, read-out: Poly IC induced ICAM1 in BEAS2B IC50
Summary of the method: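 BEAS2B human bronchial epithelial cells pre-incubated with compound for 2 hr, then transfected with 1 μg/mL poly I:C plus Oligofectamine. At 18 hr, surface ICAM-1 measured by cell-based ELISA (HRP, OD450–655). Signal corrected for cell number by crystal violet OD595.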

[8] = system: d-U937 cells; experiment: Cell viability: MTT assay; type: cell-based, human; settings: 1 μg/mL
Summary of the method: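 Differentiated U937 cells were exposed to compound at 1 or 10 μg/mL either 4 h in 5% FCS RPMI1640 or 24 h in 10% FCS RPMI1640, then given MTT for 1 h, DMSO-solubilised and read at 550 nm. Percent viability loss versus 0.5% DMSO vehicle; apparent gains appear negative.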

SMILES	pIC50 [1]	pEC50 [2]	pIC50 [3]	pIC50 [4]	pIC50 [5]	pIC50 [6]	pIC50 [7]	MTT Assay Cell viability at time point in d-U937 cells 4 h [8]	MTT Assay Cell viability at time point in d-U937 cells 24 h [8]
COc1ccc(-n2nc(C(C)C)cc2NC(=O)Nc2ccc(Oc3cc(Nc4ccc5[nH]ncc5c4)ncn3)c3ccccc23)cc1 [Example 39, 1-(4-((6-((1H-indazol-5-yl)amino)pyrimidin-4-yl)oxy)naphthalen-1-yl)-3-(3-isopropyl-1-(4-methoxyphenyl)-1H-pyrazol-5-yl)urea]	7.82	8.24	7.41	7.96	8.00	< 4.80	6.80	−ve (−ve and +ve indicate that the value is below and above respectively, the no significant effect threshold, defined as 30% inhibition at 1 μg/mL at the time point indicated.)	−ve (−ve and +ve indicate that the value is below and above respectively, the no significant effect threshold, defined as 30% inhibition at 1 μg/mL at the time point indicated.)
COc1ccc(-n2nc(C(C)C)cc2NC(=O)Nc2ccc(Oc3ccnc(Nc4ccc5[nH]nc(OCCN6CCOCC6)c5c4)n3)c3ccccc23)cc1 [Example 44, 1-(3-isopropyl-1-(4-methoxyphenyl)-1H-pyrazol-5-yl)-3-(4-((2-((3-(2-morpholinoethoxy)-1H-indazol-5-yl)amino)pyrimidin-4-yl)oxy)naphthalen-1-yl)urea]	9.10	9.40	8.70	8.70	8.30	6.69	8.85	−ve (−ve and +ve indicate that the value is below and above respectively, the no significant effect threshold, defined as 30% inhibition at 1 μg/mL at the time point indicated.)	−ve (−ve and +ve indicate that the value is below and above respectively, the no significant effect threshold, defined as 30% inhibition at 1 μg/mL at the time point indicated.)
COc1ccc(-n2nc(C(C)(C)C)cc2NC(=O)Nc2ccc(Oc3ccnc(Nc4ccc5[nH]nc(OCCN6CCOCC6)c5c4)n3)c3ccccc23)cc1 [Example 45, 1-(3-(tert-butyl)-1-(4-methoxyphenyl)-1H-pyrazol-5-yl)-3-(4-((2-((3-(2-morpholinoethoxy)-1H-indazol-5-yl)amino)pyrimidin-4-yl)oxy)naphthalen-1-yl)urea]	8.80	9.05	8.52	8.30	7.77	6.39	8.92	−ve (−ve and +ve indicate that the value is below and above respectively, the no significant effect threshold, defined as 30% inhibition at 1 μg/mL at the time point indicated.)	−ve (−ve and +ve indicate that the value is below and above respectively, the no significant effect threshold, defined as 30% inhibition at 1 μg/mL at the time point indicated.)
COc1ccc(-n2nc(C(C)C)cc2NC(=O)Nc2ccc(Oc3ccnc(Nc4ccc5[nH]nc(C(=O)N(C)C)c5c4)n3)c3ccccc23)cc1 [Example 46, 5-((4-((4-(3-(3-isopropyl-1-(4-methoxyphenyl)-1H-pyrazol-5-yl)ureido)naphthalen-1-yl)oxy)pyrimidin-2-yl)amino)-N,N-dimethyl-1H-indazole-3-carboxamide]	7.68	8.74	8.70	> 9.00	7.92	6.04	8.64	−ve (−ve and +ve indicate that the value is below and above respectively, the no significant effect threshold, defined as 30% inhibition at 1 μg/mL at the time point indicated.)	−ve (−ve and +ve indicate that the value is below and above respectively, the no significant effect threshold, defined as 30% inhibition at 1 μg/mL at the time point indicated.)

Continued by rising pIC50 [1], values first:

pIC50 [1]	pEC50 [2]	pIC50 [3]	pIC50 [4]	pIC50 [5]	pIC50 [6]	SMILES	pIC50 [7]	MTT Assay Cell viability at time point in d-U937 cells 4 h [8]	MTT Assay Cell viability at time point in d-U937 cells 24 h [8]
6.91	8.80	7.09	7.80	6.89	< 4.82	COc1ccc(-n2nc(C(C)(C)C)cc2NC(=O)Nc2ccc(Oc3ccnc(Nc4ccc5c(cnn5C)c4)n3)c3ccccc23)cc1 [Example 41, 1-(3-(tert-butyl)-1-(4-methoxyphenyl)-1H-pyrazol-5-yl)-3-(4-((2-((1-methyl-1H-indazol-5-yl)amino)pyrimidin-4-yl)oxy)naphthalen-1-yl)urea]	8.72	+ve (−ve and +ve indicate that the value is below and above respectively, the no significant effect threshold, defined as 30% inhibition at 1 μg/mL at the time point indicated.)	−ve (−ve and +ve indicate that the value is below and above respectively, the no significant effect threshold, defined as 30% inhibition at 1 μg/mL at the time point indicated.)
8.48	9.05	8.30	> 9.00	7.49	6.33	COc1ccc(-n2nc(C(C)(C)C)cc2NC(=O)Nc2ccc(Oc3ccnc(Nc4ccc5[nH]nc(C(=O)N(C)C)c5c4)n3)c3ccccc23)cc1 [Example 47, 5-((4-((4-(3-(3-(tert-butyl)-1-(4-methoxyphenyl)-1H-pyrazol-5-yl)ureido)naphthalen-1-yl)oxy)pyrimidin-2-yl)amino)-N,N-dimethyl-1H-indazole-3-carboxamide]	9.30	−ve (−ve and +ve indicate that the value is below and above respectively, the no significant effect threshold, defined as 30% inhibition at 1 μg/mL at the time point indicated.)	−ve (−ve and +ve indicate that the value is below and above respectively, the no significant effect threshold, defined as 30% inhibition at 1 μg/mL at the time point indicated.)
8.74	8.89	7.68	8.70	7.82	6.31	COc1ccc(-n2nc(C(C)(C)C)cc2NC(=O)Nc2ccc(Oc3ccnc(Nc4ccc5c(cnn5CCN5CCOCC5)c4)n3)c3ccccc23)cc1 [Example 43, 1-(3-(tert-butyl)-1-(4-methoxyphenyl)-1H-pyrazol-5-yl)-3-(4-((2-((1-(2-morpholinoethyl)-1H-indazol-5-yl)amino)pyrimidin-4-yl)oxy)naphthalen-1-yl)urea]	8.62	−ve (−ve and +ve indicate that the value is below and above respectively, the no significant effect threshold, defined as 30% inhibition at 1 μg/mL at the time point indicated.)	−ve (−ve and +ve indicate that the value is below and above respectively, the no significant effect threshold, defined as 30% inhibition at 1 μg/mL at the time point indicated.)
8.96	8.74	7.59	8.00	6.74	< 5.81	COc1ccc(-n2nc(C(C)(C)C)cc2NC(=O)Nc2ccc(Oc3ccnc(Nc4ccc5[nH]ccc5c4)n3)c3ccccc23)cc1 [Example 38, 1-(4-((2-((1H-indol-5-yl)amino)pyrimidin-4-yl)oxy)naphthalen-1-yl)-3-(3-(tert-butyl)-1-(4-methoxyphenyl)-1H-pyrazol-5-yl)urea]	8.60	−ve (−ve and +ve indicate that the value is below and above respectively, the no significant effect threshold, defined as 30% inhibition at 1 μg/mL at the time point indicated.)	−ve (−ve and +ve indicate that the value is below and above respectively, the no significant effect threshold, defined as 30% inhibition at 1 μg/mL at the time point indicated.)
